Assay results taken from ChEMBL document CHEMBL4400534, “Pharmacophore-based design of novel 3-hydroxypyrimidine-2,4-dione subtypes as inhibitors of HIV reverse transcriptase-associated RNase H: Tolerance of a nonflexible linker” (Eur J Med Chem, 2019).

Tests used:
[1] = molecular target: T1, Human immunodeficiency virus type 1 reverse transcriptase (Human immunodeficiency virus 1, UniProt Q72547); experiment: Inhibition of HIV1 reverse transcriptase RNase H expressed in Escherichia coli JM109 using RNA/DNA duplex substrate HTS-1
[2] = molecular target: T1, Human immunodeficiency virus type 1 reverse transcriptase; experiment: Inhibition of HIV1 reverse transcriptase polymerase using deoxynucleotide triphosphates and 18 nucleotide DNA primer annealed to 100 nucleotide DNA template after 30 mins
[3] = molecular target: Human immunodeficiency virus type 1 integrase (Human immunodeficiency virus 1, UniProt Q7ZJM1); experiment: Inhibition of HIV1 integrase strand transfer activity using 5'-biotinylated oligonucleotide as substrate preincubated for 10 mins followed by substrate addition and measured after 30 mins
[4] = system: Human immunodeficiency virus 1; experiment: Antiviral activity against HIV-1 infected in human P4R5 cells assessed as reduction in viral replication preincubated for 24 hrs followed by viral infection and measured after 48 hrs by MAGI assay; format: functional, organism-based
[5] = Cytotoxicity against human P4R5 cells after 72 hrs by XTT assay; format: cell-based

Chain of Human immunodeficiency virus type 1 integrase (Q7ZJM1 whole entry): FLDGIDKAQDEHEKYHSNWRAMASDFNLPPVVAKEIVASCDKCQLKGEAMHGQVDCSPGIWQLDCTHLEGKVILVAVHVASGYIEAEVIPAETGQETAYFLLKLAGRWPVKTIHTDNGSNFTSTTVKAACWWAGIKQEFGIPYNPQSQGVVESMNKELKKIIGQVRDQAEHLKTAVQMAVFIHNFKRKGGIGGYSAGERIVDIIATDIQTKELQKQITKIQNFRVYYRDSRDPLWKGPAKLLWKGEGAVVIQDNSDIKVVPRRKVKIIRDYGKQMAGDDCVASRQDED

Compound | IC50 [1] | IC50 [2] | IC50 [3] | EC50 [4] | CC50 [5]
O=C(c1ccc(-c2ccc(F)cc2)cc1)c1cc(=O)n(O)c(=O)[nH]1 | 0.027 µM | > 10 µM | 6.7 µM | 9 µM | > 100 µM
Cc1cc(C)cc(-c2ccc(C(=O)c3cc(=O)n(O)c(=O)[nH]3)cc2)c1 | 0.063 µM | > 10 µM | 3.5 µM | > 20 µM | > 100 µM
COC(=O)c1ccc(-c2ccc(C(=O)c3cc(=O)n(O)c(=O)[nH]3)cc2)cc1 | 0.015 µM | > 10 µM | 6.7 µM | > 20 µM | > 100 µM
O=C(c1cccc(-c2ccccc2)c1)c1cc(=O)n(O)c(=O)[nH]1 | 0.017 µM | > 10 µM | 7.1 µM | > 20 µM | > 100 µM
O=C(c1ccc(-c2ccccc2)cc1)c1cc(=O)n(O)c(=O)[nH]1 | 0.022 µM | > 10 µM | 2.5 µM | 15 µM | > 100 µM
Cc1ccc(-c2ccc(C(=O)c3cc(=O)n(O)c(=O)[nH]3)cc2)cc1 | 0.021 µM | > 10 µM | 10 µM | 4.7 µM | 22 µM
COC(=O)c1ccc(C(=O)c2cc(=O)n(O)c(=O)[nH]2)cc1 | 0.031 µM | > 10 µM | 13 µM | > 20 µM | > 100 µM
CCOCn1c(C(C#N)c2ccc(-c3ccccc3)cc2)cc(=O)n(O)c1=O (stereo not given) | 0.76 µM | > 10 µM | > 100 µM | > 20 µM | > 100 µM
Cc1cc(C)cc(C(=O)c2cc(=O)n(O)c(=O)[nH]2)c1 | 0.09 µM | > 10 µM | 4.9 µM | 9.5 µM | 21 µM
O=C(c1ccc(F)cc1)c1cc(=O)n(O)c(=O)[nH]1 | 0.085 µM | > 10 µM | 4 µM | > 20 µM | > 100 µM
CCOCn1c(C(C#N)c2cc(C)cc(C)c2)cc(=O)n(O)c1=O (stereo not given) | 3.7 µM | > 10 µM | > 100 µM | > 20 µM | > 100 µM
Cc1cc(-c2ccc(C(=O)c3cc(=O)n(O)c(=O)[nH]3)cc2)ccc1F | 0.019 µM | 8.3 µM | 4.3 µM | > 20 µM | > 100 µM
N#Cc1ccc(-c2ccc(C(=O)c3cc(=O)n(O)c(=O)[nH]3)cc2)cc1 | 0.024 µM | 7.7 µM | 0.53 µM | > 20 µM | > 100 µM
O=C(c1ccc(C(F)(F)F)cc1)c1cc(=O)n(O)c(=O)[nH]1 | 0.081 µM | > 10 µM | 2.1 µM | > 20 µM | > 100 µM
CCOCn1c(C(=O)c2cccc(-c3ccccc3)c2)cc(=O)n(O)c1=O | 1.1 µM | > 10 µM | > 100 µM | 12 µM | 73 µM
O=C(c1ccc(-c2ccc(Cl)c(F)c2)cc1)c1cc(=O)n(O)c(=O)[nH]1 | 0.023 µM | > 10 µM | 0.37 µM | 18 µM | > 100 µM
O=C(c1ccc(-c2ccc(C(F)(F)F)cc2)cc1)c1cc(=O)n(O)c(=O)[nH]1 | 0.026 µM | > 10 µM | > 100 µM | 5.3 µM | 17 µM
COc1ccc(-c2ccc(C(=O)c3cc(=O)n(O)c(=O)[nH]3)cc2)cc1 | 0.53 µM | 5.9 µM | > 100 µM | > 20 µM | > 100 µM
COc1ccc(-c2ccc(C(=O)c3cc(=O)n(O)c(=O)[nH]3)cc2)cc1OC | 0.074 µM | 9.6 µM | 0.33 µM | 6.7 µM | 8.4 µM
CCOCn1c(C(=O)c2ccc(-c3ccccc3)cc2)cc(=O)n(O)c1=O | 0.42 µM | > 10 µM | > 100 µM | > 20 µM | > 100 µM
Cc1ccc(C(=O)c2cc(=O)n(O)c(=O)[nH]2)cc1 | 0.093 µM | > 10 µM | 7.2 µM | > 20 µM | 48 µM
